According to PubChem BioAssay AID1963853 (Molecular Pharmacology Branch, DTP, NCI, 2024):

System: 266295-075-R-J1-PDC spheroid viability
Test: Anticancer human tumor 266295-075-R-J1-PDC patient-derived head and neck squamous carcinoma cell line growth inhibition [POLQ]
Conditions: spheroids with HUVEC and MSC; for IC50: curve of first compound; for viability, T/C: stronger effect = lower value
How it was run: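 Patient-derived tumour cells were co-cultured with HUVEC and mesenchymal stem cells as multicellular spheroids at 37 °C. They were treated with POLQ inhibitors (novobiocin, ART-558, RP6685) alone or combined with other agents. Top concentrations were at or near clinical Cmax (otherwise 10 microM; SN-38 at 1 microM), decreasing in half-log steps.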

[1] = second compound 0.0316 µM, first compound 0.0316 µM
[2] = second compound 0.0316 µM, first compound 0.1 µM
[3] = second compound 0.0316 µM, first compound 0.316 µM
[4] = second compound 0.0316 µM, first compound 1 µM
[5] = second compound 0.0316 µM, first compound 3.16 µM
[6] = second compound 0.0316 µM, first compound 10 µM
[7] = second compound 0.1 µM, first compound 0.0316 µM
[8] = second compound 0.1 µM, first compound 0.1 µM
[9] = second compound 0.1 µM, first compound 0.316 µM
[10] = second compound 0.1 µM, first compound 1 µM
[11] = second compound 0.1 µM, first compound 3.16 µM
[12] = second compound 0.1 µM, first compound 10 µM
[13] = second compound 0.316 µM, first compound 0.0316 µM
[14] = second compound 0.316 µM, first compound 0.1 µM
[15] = second compound 0.316 µM, first compound 0.316 µM
[16] = second compound 0.316 µM, first compound 1 µM
[17] = second compound 0.316 µM, first compound 3.16 µM
[18] = second compound 0.316 µM, first compound 10 µM
[19] = second compound 1 µM, first compound 0.0316 µM
[20] = second compound 1 µM, first compound 0.1 µM
[21] = second compound 1 µM, first compound 0.316 µM
[22] = second compound 1 µM, first compound 1 µM
[23] = second compound 1 µM, first compound 3.16 µM
[24] = second compound 1 µM, first compound 10 µM
[25] = second compound 3.16 µM, first compound 0.0316 µM
[26] = second compound 3.16 µM, first compound 0.1 µM
[27] = second compound 3.16 µM, first compound 0.316 µM
[28] = second compound 3.16 µM, first compound 1 µM
[29] = second compound 3.16 µM, first compound 3.16 µM
[30] = second compound 3.16 µM, first compound 10 µM
[31] = second compound 10 µM, first compound 0.0316 µM
[32] = second compound 10 µM, first compound 0.1 µM
[33] = second compound 10 µM, first compound 0.316 µM
[34] = second compound 10 µM, first compound 1 µM
[35] = second compound 10 µM, first compound 3.16 µM
[36] = second compound 10 µM, first compound 10 µM
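Also: spheroids exposed to compounds for seven days before readout.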

SMILES: O=c1[nH]cc(F)c(=O)[nH]1 + Nc1ccc(C#CCN(C(=O)Cc2ncc(C(F)(F)F)cc2C(F)(F)F)c2ccc(F)cc2)nn1
- IC50 (second compound 0.0316 µM): > 10 µM
- IC50 (second compound 0.1 µM): > 10 µM
- IC50 (second compound 0.316 µM): > 10 µM
- IC50 (second compound 1 µM): > 10 µM
- IC50 (second compound 3.16 µM): > 10 µM
- IC50 (second compound 10 µM): > 10 µM
- viability, T/C [1]: 107%
- viability, T/C [2]: 101%
- viability, T/C [3]: 104%
- viability, T/C [4]: 109%
- viability, T/C [5]: 102%
- viability, T/C [6]: 99.5%
- viability, T/C [7]: 85.5%
- viability, T/C [8]: 116%
- viability, T/C [9]: 84.7%
- viability, T/C [10]: 98%
- viability, T/C [11]: 109%
- viability, T/C [12]: 80.2%
- viability, T/C [13]: 102%
- viability, T/C [14]: 96.5%
- viability, T/C [15]: 83%
- viability, T/C [16]: 89.6%
- viability, T/C [17]: 108%
- viability, T/C [18]: 76%
- viability, T/C [19]: 105%
- viability, T/C [20]: 85.7%
- viability, T/C [21]: 95.6%
- viability, T/C [22]: 120%
- viability, T/C [23]: 86%
- viability, T/C [24]: 79.8%
- viability, T/C [25]: 99.9%
- viability, T/C [26]: 131%
- viability, T/C [27]: 101%
- viability, T/C [28]: 89.3%
- viability, T/C [29]: 99.1%
- viability, T/C [30]: 86.9%
- viability, T/C [31]: 113%
- viability, T/C [32]: 103%
- viability, T/C [33]: 95.8%
- viability, T/C [34]: 96.3%
- viability, T/C [35]: 88%
- viability, T/C [36]: 87.1%

SMILES: O=c1[nH]cc(F)c(=O)[nH]1 + COC1C(OC(N)=O)C(O)C(Oc2ccc3c(O)c(NC(=O)c4ccc(O)c(CC=C(C)C)c4)c(=O)oc3c2C)OC1(C)C
- IC50 (second compound 0.0316 µM): > 10 µM
- IC50 (second compound 0.1 µM): > 10 µM
- IC50 (second compound 0.316 µM): > 10 µM
- IC50 (second compound 1 µM): > 10 µM
- IC50 (second compound 3.16 µM): > 10 µM
- IC50 (second compound 10 µM): > 10 µM
- viability, T/C [1]: 103%
- viability, T/C [2]: 86.2%
- viability, T/C [3]: 93.1%
- viability, T/C [4]: 107%
- viability, T/C [5]: 96.1%
- viability, T/C [6]: 100%
- viability, T/C [7]: 106%
- viability, T/C [8]: 110%
- viability, T/C [9]: 86.8%
- viability, T/C [10]: 93.6%
- viability, T/C [11]: 89%
- viability, T/C [12]: 103%
- viability, T/C [13]: 103%
- viability, T/C [14]: 106%
- viability, T/C [15]: 97.3%
- viability, T/C [16]: 97.3%
- viability, T/C [17]: 91.7%
- viability, T/C [18]: 89%
- viability, T/C [19]: 94.2%
- viability, T/C [20]: 122%
- viability, T/C [21]: 93.2%
- viability, T/C [22]: 111%
- viability, T/C [23]: 90.6%
- viability, T/C [24]: 89.9%
- viability, T/C [25]: 112%
- viability, T/C [26]: 93.5%
- viability, T/C [27]: 108%
- viability, T/C [28]: 97.8%
- viability, T/C [29]: 105%
- viability, T/C [30]: 90.5%
- viability, T/C [31]: 102%
- viability, T/C [32]: 103%
- viability, T/C [33]: 96.2%
- viability, T/C [34]: 103%
- viability, T/C [35]: 98.7%
- viability, T/C [36]: 78.9%

SMILES: C=CC(=O)N1CCN(c2nc(=O)n(-c3c(C)ccnc3C(C)C)c3nc(-c4c(O)cccc4F)c(F)cc23)C(C)C1 (stereo not drawn) + Nc1ccc(C#CCN(C(=O)Cc2ncc(C(F)(F)F)cc2C(F)(F)F)c2ccc(F)cc2)nn1
- IC50 (second compound 0.0316 µM): > 10 µM
- IC50 (second compound 0.1 µM): > 10 µM
- IC50 (second compound 0.316 µM): > 10 µM
- IC50 (second compound 1 µM): > 10 µM
- IC50 (second compound 3.16 µM): > 10 µM
- IC50 (second compound 10 µM): > 10 µM
- viability, T/C [1]: 108%
- viability, T/C [2]: 96.4%
- viability, T/C [3]: 101%
- viability, T/C [4]: 96.8%
- viability, T/C [5]: 112%
- viability, T/C [6]: 107%
- viability, T/C [7]: 96%
- viability, T/C [8]: 106%
- viability, T/C [9]: 100%
- viability, T/C [10]: 111%
- viability, T/C [11]: 108%
- viability, T/C [12]: 112%
- viability, T/C [13]: 89.8%
- viability, T/C [14]: 107%
- viability, T/C [15]: 90.6%
- viability, T/C [16]: 107%
- viability, T/C [17]: 145%
- viability, T/C [18]: 125%
- viability, T/C [19]: 101%
- viability, T/C [20]: 95.5%
- viability, T/C [21]: 133%
- viability, T/C [22]: 101%
- viability, T/C [23]: 124%
- viability, T/C [24]: 73.9%
- viability, T/C [25]: 98.4%
- viability, T/C [26]: 93.8%
- viability, T/C [27]: 94.2%
- viability, T/C [28]: 108%
- viability, T/C [29]: 117%
- viability, T/C [30]: 103%
- viability, T/C [31]: 106%
- viability, T/C [32]: 72.8%
- viability, T/C [33]: 92.3%
- viability, T/C [34]: 106%
- viability, T/C [35]: 105%
- viability, T/C [36]: 108%

SMILES: COc1cc2cc(C(=O)CCC(=O)O)sc2cc1OC + Nc1ccc(C#CCN(C(=O)Cc2ncc(C(F)(F)F)cc2C(F)(F)F)c2ccc(F)cc2)nn1
- IC50 (second compound 0.0316 µM): > 10 µM
- IC50 (second compound 0.1 µM): > 10 µM
- IC50 (second compound 0.316 µM): > 10 µM
- IC50 (second compound 1 µM): > 10 µM
- IC50 (second compound 3.16 µM): > 10 µM
- IC50 (second compound 10 µM): > 10 µM
- viability, T/C [1]: 119%
- viability, T/C [2]: 81%
- viability, T/C [3]: 82.3%
- viability, T/C [4]: 89.5%
- viability, T/C [5]: 94.8%
- viability, T/C [6]: 99.7%
- viability, T/C [7]: 101%
- viability, T/C [8]: 87.7%
- viability, T/C [9]: 84.3%
- viability, T/C [10]: 127%
- viability, T/C [11]: 82.2%
- viability, T/C [12]: 80.6%
- viability, T/C [13]: 109%
- viability, T/C [14]: 112%
- viability, T/C [15]: 104%
- viability, T/C [16]: 79.8%
- viability, T/C [17]: 104%
- viability, T/C [18]: 79.1%
- viability, T/C [19]: 86.4%
- viability, T/C [20]: 106%
- viability, T/C [21]: 102%
- viability, T/C [22]: 83%
- viability, T/C [23]: 117%
- viability, T/C [24]: 90.9%
- viability, T/C [25]: 105%
- viability, T/C [26]: 106%
- viability, T/C [27]: 98.9%
- viability, T/C [28]: 81.8%
- viability, T/C [29]: 85.7%
- viability, T/C [30]: 104%
- viability, T/C [31]: 82.5%
- viability, T/C [32]: 83.7%
- viability, T/C [33]: 86.4%
- viability, T/C [34]: 102%
- viability, T/C [35]: 87.5%
- viability, T/C [36]: 88%
